Laboratory results taken from the supplement of paper PMC10307832.

Key:
Assay in all cases: relative viability (nuclei count vs DMSO), 5 days (fraction); higher = more cells survive
NCI-H1734 = test system: NCI-H1734
How it was run: (§1)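 Medians of duplicate plates are given as relative viability. That measure is the nuclei count in treated wells divided by the count in vehicle wells. Counts were taken on 4× images of lung cancer cell lines in 1536-well plates, 5 days after pin-tool dosing the day after seeding with one drug alone or a fixed anchor-drug dose plus five library-drug doses (not always all listed) in √10 steps.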

CAL-12T = test system: CAL-12T
How it was run: as §1

LK-2 = test system: LK-2
How it was run: as §1

NCI-H1650 = test system: NCI-H1650
How it was run: as §1

A-427 = test system: A-427
How it was run: as §1

UMC-11 = test system: UMC-11
How it was run: as §1

NCI-H1648 = test system: NCI-H1648
How it was run: as §1

NCI-H2009 = test system: NCI-H2009
How it was run: as §1

## CCN(CC)CCCCNc1ncc2cc(-c3cc(OC)cc(OC)c3)c(NC(=O)NC(C)(C)C)nc2n1 + CC(=O)c1c(C)c2cnc(Nc3ccc(N4CCNCC4)cn3)nc2n(C2CCCC2)c1=O [Palbociclib] (partner 0.5 µM)
NCI-H1734; first compound 0.01 µM
  relative viability: 0.16
NCI-H1734; first compound 0.03162 µM
  relative viability: 0.281
NCI-H1734; first compound 0.1 µM
  relative viability: 0.334
NCI-H1734; first compound 0.3162 µM
  relative viability: 0.38
NCI-H1734; first compound 1 µM
  relative viability: 0.323
CAL-12T; first compound 0.01 µM
  relative viability: 0.411
CAL-12T; first compound 0.03162 µM
  relative viability: 0.456
CAL-12T; first compound 0.1 µM
  relative viability: 0.518
CAL-12T; first compound 0.3162 µM
  relative viability: 0.419
CAL-12T; first compound 1 µM
  relative viability: 0.408
LK-2; first compound 0.01 µM
  relative viability: 0.65
LK-2; first compound 0.03162 µM
  relative viability: 0.66
LK-2; first compound 0.1 µM
  relative viability: 0.637
LK-2; first compound 0.3162 µM
  relative viability: 0.502
LK-2; first compound 1 µM
  relative viability: 0.156
NCI-H1650; first compound 0.01 µM
  relative viability: 0.311
NCI-H1650; first compound 0.03162 µM
  relative viability: 0.338
NCI-H1650; first compound 0.1 µM
  relative viability: 0.354
NCI-H1650; first compound 0.3162 µM
  relative viability: 0.308
NCI-H1650; first compound 1 µM
  relative viability: 0.296
A-427; first compound 0.01 µM
  relative viability: 0.58
A-427; first compound 0.03162 µM
  relative viability: 0.475
A-427; first compound 0.1 µM
  relative viability: 0.59
A-427; first compound 0.3162 µM
  relative viability: 0.501
A-427; first compound 1 µM
  relative viability: 0.398
UMC-11; first compound 0.01 µM
  relative viability: 0.338
UMC-11; first compound 0.03162 µM
  relative viability: 0.305
UMC-11; first compound 0.1 µM
  relative viability: 0.351
UMC-11; first compound 0.3162 µM
  relative viability: 0.313
UMC-11; first compound 1 µM
  relative viability: 0.343
NCI-H1648; first compound 0.01 µM
  relative viability: 0.288
NCI-H1648; first compound 0.03162 µM
  relative viability: 0.292
NCI-H1648; first compound 0.1 µM
  relative viability: 0.237
NCI-H1648; first compound 0.3162 µM
  relative viability: 0.274
NCI-H1648; first compound 1 µM
  relative viability: 0.238
NCI-H2009; first compound 0.01 µM
  relative viability: 0.211
NCI-H2009; first compound 0.03162 µM
  relative viability: 0.22
NCI-H2009; first compound 0.1 µM
  relative viability: 0.234
NCI-H2009; first compound 0.3162 µM
  relative viability: 0.196
NCI-H2009; first compound 1 µM
  relative viability: 0.161

## O=c1cc(-c2cccc3c2Sc2ccccc2S3)oc(N2CCOCC2)c1 + Nc1nc2[nH]cc(CCc3ccc(C(=O)N[C@@H](CCC(=O)O)C(=O)O)cc3)c2c(=O)[nH]1 [Pemetrexed] (partner 0.2 µM)
NCI-H1734; first compound 0.08 µM
  relative viability: 0.394
NCI-H1734; first compound 0.253 µM
  relative viability: 0.45
NCI-H1734; first compound 0.8 µM
  relative viability: 0.487
NCI-H1734; first compound 8 µM
  relative viability: 0.432
CAL-12T; first compound 0.08 µM
  relative viability: 1.25
CAL-12T; first compound 0.253 µM
  relative viability: 1.39
CAL-12T; first compound 0.8 µM
  relative viability: 1.18
CAL-12T; first compound 2.53 µM
  relative viability: 1.04
CAL-12T; first compound 8 µM
  relative viability: 1.03
LK-2; first compound 0.08 µM
  relative viability: 0.312
LK-2; first compound 0.253 µM
  relative viability: 0.297
LK-2; first compound 0.8 µM
  relative viability: 0.224
LK-2; first compound 2.53 µM
  relative viability: 0.256
LK-2; first compound 8 µM
  relative viability: 0.284
NCI-H1650; first compound 0.08 µM
  relative viability: 0.362
NCI-H1650; first compound 0.253 µM
  relative viability: 0.366
NCI-H1650; first compound 0.8 µM
  relative viability: 0.407
NCI-H1650; first compound 2.53 µM
  relative viability: 0.415
NCI-H1650; first compound 8 µM
  relative viability: 0.36
A-427; first compound 0.08 µM
  relative viability: 0.808
A-427; first compound 0.253 µM
  relative viability: 1
A-427; first compound 0.8 µM
  relative viability: 0.991
A-427; first compound 2.53 µM
  relative viability: 0.92
A-427; first compound 8 µM
  relative viability: 0.993
UMC-11; first compound 0.08 µM
  relative viability: 0.823
UMC-11; first compound 0.253 µM
  relative viability: 1.04
UMC-11; first compound 0.8 µM
  relative viability: 0.82
UMC-11; first compound 2.53 µM
  relative viability: 0.791
UMC-11; first compound 8 µM
  relative viability: 0.935
NCI-H1648; first compound 0.253 µM
  relative viability: 0.701
NCI-H1648; first compound 0.8 µM
  relative viability: 0.624
NCI-H1648; first compound 8 µM
  relative viability: 0.749
NCI-H2009; first compound 0.08 µM
  relative viability: 1.08
NCI-H2009; first compound 0.253 µM
  relative viability: 0.96
NCI-H2009; first compound 0.8 µM
  relative viability: 0.983
NCI-H2009; first compound 2.53 µM
  relative viability: 0.966
NCI-H2009; first compound 8 µM
  relative viability: 0.957

## O=c1cc(N2CCOCC2)oc2c(-c3cccc4c3sc3ccccc34)cccc12 + CC(=O)Nc1cccc(-n2c(=O)n(C3CC3)c(=O)c3c(Nc4ccc(I)cc4F)n(C)c(=O)c(C)c32)c1 [Trametinib] (partner 0.02 µM)
NCI-H1734; first compound 0.01 µM
  relative viability: 0.772
NCI-H1734; first compound 0.03162 µM
  relative viability: 0.747
NCI-H1734; first compound 0.1 µM
  relative viability: 0.637
NCI-H1734; first compound 0.3162 µM
  relative viability: 0.69
NCI-H1734; first compound 1 µM
  relative viability: 0.758
CAL-12T; first compound 0.01 µM
  relative viability: 0.334
CAL-12T; first compound 0.03162 µM
  relative viability: 0.417
CAL-12T; first compound 0.1 µM
  relative viability: 0.354
CAL-12T; first compound 0.3162 µM
  relative viability: 0.381
CAL-12T; first compound 1 µM
  relative viability: 0.363
LK-2; first compound 0.01 µM
  relative viability: 0.808
LK-2; first compound 0.03162 µM
  relative viability: 0.807
LK-2; first compound 0.1 µM
  relative viability: 0.957
LK-2; first compound 0.3162 µM
  relative viability: 0.515
LK-2; first compound 1 µM
  relative viability: 0.902
NCI-H1650; first compound 0.01 µM
  relative viability: 0.526
NCI-H1650; first compound 0.03162 µM
  relative viability: 0.643
NCI-H1650; first compound 0.1 µM
  relative viability: 0.782
NCI-H1650; first compound 0.3162 µM
  relative viability: 0.571
NCI-H1650; first compound 1 µM
  relative viability: 0.517
A-427; first compound 0.01 µM
  relative viability: 0.869
A-427; first compound 0.03162 µM
  relative viability: 0.775
A-427; first compound 0.1 µM
  relative viability: 0.747
A-427; first compound 0.3162 µM
  relative viability: 0.812
A-427; first compound 1 µM
  relative viability: 0.695
UMC-11; first compound 0.01 µM
  relative viability: 0.734
UMC-11; first compound 0.03162 µM
  relative viability: 0.741
UMC-11; first compound 0.1 µM
  relative viability: 0.773
UMC-11; first compound 0.3162 µM
  relative viability: 0.756
UMC-11; first compound 1 µM
  relative viability: 0.832
NCI-H1648; first compound 0.03162 µM
  relative viability: 0.471
NCI-H1648; first compound 0.1 µM
  relative viability: 0.5
NCI-H1648; first compound 0.3162 µM
  relative viability: 0.446
NCI-H1648; first compound 1 µM
  relative viability: 0.483
NCI-H2009; first compound 0.01 µM
  relative viability: 0.315
NCI-H2009; first compound 0.03162 µM
  relative viability: 0.294
NCI-H2009; first compound 0.1 µM
  relative viability: 0.255
NCI-H2009; first compound 0.3162 µM
  relative viability: 0.279
NCI-H2009; first compound 1 µM
  relative viability: 0.212
